The target of test [1] is Fibroblast growth factor receptor 1 (Homo sapiens) (UniProt P11362). The test can be described thus: Residual activity of wild type FGF-R1 at 0.1 uM by microplate scintillation counting.
Test [2] addresses Mitogen-activated protein kinase kinase kinase kinase 4 (Homo sapiens) (UniProt O95819). The test is described as follows: Residual activity of MAP4K4 at 1 uM by microplate scintillation counting.
Test [3] has as its target T1, Eukaryotic elongation factor 2 kinase (Homo sapiens) (UniProt O00418).
T1 sequence (whole entry): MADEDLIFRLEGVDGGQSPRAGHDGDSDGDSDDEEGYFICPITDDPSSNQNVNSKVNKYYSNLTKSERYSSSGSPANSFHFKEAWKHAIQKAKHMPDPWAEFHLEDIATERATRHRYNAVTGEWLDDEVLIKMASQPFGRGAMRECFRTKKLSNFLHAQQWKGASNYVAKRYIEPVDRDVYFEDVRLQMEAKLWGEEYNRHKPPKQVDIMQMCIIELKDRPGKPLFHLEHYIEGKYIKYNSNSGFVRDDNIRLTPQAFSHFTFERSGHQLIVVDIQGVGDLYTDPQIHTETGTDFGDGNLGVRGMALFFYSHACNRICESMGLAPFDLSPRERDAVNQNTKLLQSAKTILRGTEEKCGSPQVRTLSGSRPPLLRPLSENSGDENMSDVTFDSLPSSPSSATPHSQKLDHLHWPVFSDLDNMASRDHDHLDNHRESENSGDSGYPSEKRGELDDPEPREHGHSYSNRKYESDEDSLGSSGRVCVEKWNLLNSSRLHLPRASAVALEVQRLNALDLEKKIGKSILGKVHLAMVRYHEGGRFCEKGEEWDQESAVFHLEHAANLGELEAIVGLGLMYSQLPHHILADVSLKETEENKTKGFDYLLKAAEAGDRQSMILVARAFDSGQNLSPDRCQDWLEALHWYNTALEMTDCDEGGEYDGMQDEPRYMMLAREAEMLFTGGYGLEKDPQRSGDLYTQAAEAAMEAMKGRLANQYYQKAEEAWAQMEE
The test is described as follows: Residual activity of EEF2K at 10 uM by microplate scintillation counting.

The target of test [4] is T2, Ephrin type-A receptor 3 (Homo sapiens) (UniProt P29320).
T2 sequence (whole entry): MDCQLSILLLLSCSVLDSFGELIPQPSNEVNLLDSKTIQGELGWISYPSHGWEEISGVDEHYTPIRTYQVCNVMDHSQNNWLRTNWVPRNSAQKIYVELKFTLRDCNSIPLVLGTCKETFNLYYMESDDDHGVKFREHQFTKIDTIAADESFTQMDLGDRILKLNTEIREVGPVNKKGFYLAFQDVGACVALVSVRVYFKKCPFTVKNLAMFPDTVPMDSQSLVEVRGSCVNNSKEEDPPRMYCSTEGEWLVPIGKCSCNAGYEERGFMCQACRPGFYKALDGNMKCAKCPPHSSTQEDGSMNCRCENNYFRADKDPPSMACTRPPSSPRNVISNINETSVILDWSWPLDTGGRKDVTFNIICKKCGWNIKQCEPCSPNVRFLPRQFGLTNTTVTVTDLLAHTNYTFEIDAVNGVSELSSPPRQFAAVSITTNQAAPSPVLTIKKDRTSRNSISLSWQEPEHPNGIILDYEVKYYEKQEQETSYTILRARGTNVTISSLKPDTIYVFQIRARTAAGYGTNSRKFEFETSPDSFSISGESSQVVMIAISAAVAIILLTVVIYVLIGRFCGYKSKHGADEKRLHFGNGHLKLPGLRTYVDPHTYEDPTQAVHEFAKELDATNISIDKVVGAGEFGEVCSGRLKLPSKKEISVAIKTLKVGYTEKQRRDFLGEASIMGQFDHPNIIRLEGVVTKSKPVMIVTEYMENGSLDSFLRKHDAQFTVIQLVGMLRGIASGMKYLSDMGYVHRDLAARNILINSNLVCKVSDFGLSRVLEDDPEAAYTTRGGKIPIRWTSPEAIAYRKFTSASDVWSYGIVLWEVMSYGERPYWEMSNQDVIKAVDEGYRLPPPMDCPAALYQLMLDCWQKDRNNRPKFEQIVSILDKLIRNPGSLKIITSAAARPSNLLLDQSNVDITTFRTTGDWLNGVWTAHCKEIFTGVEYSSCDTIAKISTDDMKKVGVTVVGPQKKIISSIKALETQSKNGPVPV
The test can be described thus: Residual activity of EPHA3 at 10 uM by microplate scintillation counting.

Test [5] concerns the target T3, Beta-adrenergic receptor kinase 1 (Homo sapiens) (UniProt P25098).
T3 sequence (whole entry): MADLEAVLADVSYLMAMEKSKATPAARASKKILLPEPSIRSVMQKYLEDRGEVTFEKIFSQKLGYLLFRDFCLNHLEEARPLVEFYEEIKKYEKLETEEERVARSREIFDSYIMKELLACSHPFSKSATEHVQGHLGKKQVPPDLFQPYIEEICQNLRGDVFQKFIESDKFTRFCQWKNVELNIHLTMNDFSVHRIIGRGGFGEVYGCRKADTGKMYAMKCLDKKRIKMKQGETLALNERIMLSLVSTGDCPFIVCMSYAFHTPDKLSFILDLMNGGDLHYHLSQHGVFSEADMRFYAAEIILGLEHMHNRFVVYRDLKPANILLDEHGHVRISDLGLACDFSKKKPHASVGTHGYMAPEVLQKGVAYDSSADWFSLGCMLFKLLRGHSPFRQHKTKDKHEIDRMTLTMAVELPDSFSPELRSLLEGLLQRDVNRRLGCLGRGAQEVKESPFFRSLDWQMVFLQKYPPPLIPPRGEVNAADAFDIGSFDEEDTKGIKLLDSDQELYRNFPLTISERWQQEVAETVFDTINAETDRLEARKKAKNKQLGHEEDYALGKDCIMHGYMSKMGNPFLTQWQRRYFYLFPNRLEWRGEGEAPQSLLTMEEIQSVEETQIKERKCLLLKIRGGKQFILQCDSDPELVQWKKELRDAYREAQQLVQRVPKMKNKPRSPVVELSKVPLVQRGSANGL
The test is described as follows: Residual activity of GRK2 at 10 uM by microplate scintillation counting.

The target of test [6] is Calcium/calmodulin-dependent protein kinase type II subunit alpha (Homo sapiens) (UniProt Q9UQM7). The test is described as follows: Residual activity of CAMK2A at 10 uM by microplate scintillation counting.
Chain of Calcium/calmodulin-dependent protein kinase type II subunit alpha (Homo sapiens) (Q9UQM7 whole entry): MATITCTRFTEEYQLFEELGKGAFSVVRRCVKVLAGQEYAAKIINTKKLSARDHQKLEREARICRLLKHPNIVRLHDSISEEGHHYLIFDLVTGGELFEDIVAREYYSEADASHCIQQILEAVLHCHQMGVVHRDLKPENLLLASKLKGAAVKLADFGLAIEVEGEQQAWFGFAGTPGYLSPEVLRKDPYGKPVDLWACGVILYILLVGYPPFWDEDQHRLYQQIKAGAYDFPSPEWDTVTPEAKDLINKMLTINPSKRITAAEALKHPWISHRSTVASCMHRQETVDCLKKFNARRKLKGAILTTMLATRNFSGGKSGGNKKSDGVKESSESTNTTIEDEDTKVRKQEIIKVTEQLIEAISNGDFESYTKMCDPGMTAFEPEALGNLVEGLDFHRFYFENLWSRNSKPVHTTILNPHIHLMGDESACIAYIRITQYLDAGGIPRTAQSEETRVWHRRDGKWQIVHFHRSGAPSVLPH
Test [7] deals with Mitogen-activated protein kinase 11 (Homo sapiens) (UniProt Q15759). The test can be described thus: Residual activity of p38beta at 0.1 uM by microplate scintillation counting.
Chain of Mitogen-activated protein kinase 11 (Homo sapiens) (Q15759 whole entry): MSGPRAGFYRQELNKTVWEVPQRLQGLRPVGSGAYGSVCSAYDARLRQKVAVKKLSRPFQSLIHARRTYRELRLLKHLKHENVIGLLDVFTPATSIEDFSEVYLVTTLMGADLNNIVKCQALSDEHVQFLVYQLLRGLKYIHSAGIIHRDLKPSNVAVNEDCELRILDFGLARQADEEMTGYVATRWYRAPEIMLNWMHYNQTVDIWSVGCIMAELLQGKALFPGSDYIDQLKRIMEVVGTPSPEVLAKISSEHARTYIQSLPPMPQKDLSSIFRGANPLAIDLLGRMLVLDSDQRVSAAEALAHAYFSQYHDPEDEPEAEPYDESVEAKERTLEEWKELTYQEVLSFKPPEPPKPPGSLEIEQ

Chain of Fibroblast growth factor receptor 1 (Homo sapiens) (P11362 22-822 limits assumed): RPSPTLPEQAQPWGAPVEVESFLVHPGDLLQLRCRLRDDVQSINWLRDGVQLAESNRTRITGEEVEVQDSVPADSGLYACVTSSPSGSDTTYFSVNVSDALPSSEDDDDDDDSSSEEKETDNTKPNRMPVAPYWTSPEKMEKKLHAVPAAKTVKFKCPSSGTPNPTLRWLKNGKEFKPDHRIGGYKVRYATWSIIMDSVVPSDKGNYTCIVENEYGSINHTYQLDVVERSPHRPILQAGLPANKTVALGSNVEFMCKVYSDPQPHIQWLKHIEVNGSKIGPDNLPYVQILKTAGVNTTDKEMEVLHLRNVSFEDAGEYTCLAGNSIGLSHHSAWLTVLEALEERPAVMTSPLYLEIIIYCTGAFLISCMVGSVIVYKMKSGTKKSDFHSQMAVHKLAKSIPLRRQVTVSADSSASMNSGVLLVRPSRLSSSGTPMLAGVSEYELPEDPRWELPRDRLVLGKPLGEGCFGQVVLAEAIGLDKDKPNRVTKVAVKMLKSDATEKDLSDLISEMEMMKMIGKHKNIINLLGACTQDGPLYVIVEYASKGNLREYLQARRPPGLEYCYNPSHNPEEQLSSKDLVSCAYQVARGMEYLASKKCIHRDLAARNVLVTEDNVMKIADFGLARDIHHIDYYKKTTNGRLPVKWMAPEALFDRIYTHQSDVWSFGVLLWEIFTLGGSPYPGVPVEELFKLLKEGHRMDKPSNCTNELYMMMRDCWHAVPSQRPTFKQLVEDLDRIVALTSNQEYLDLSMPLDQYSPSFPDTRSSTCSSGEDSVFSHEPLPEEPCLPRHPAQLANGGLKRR
Chain of Mitogen-activated protein kinase kinase kinase kinase 4 (Homo sapiens) (O95819 2-1239 limits assumed): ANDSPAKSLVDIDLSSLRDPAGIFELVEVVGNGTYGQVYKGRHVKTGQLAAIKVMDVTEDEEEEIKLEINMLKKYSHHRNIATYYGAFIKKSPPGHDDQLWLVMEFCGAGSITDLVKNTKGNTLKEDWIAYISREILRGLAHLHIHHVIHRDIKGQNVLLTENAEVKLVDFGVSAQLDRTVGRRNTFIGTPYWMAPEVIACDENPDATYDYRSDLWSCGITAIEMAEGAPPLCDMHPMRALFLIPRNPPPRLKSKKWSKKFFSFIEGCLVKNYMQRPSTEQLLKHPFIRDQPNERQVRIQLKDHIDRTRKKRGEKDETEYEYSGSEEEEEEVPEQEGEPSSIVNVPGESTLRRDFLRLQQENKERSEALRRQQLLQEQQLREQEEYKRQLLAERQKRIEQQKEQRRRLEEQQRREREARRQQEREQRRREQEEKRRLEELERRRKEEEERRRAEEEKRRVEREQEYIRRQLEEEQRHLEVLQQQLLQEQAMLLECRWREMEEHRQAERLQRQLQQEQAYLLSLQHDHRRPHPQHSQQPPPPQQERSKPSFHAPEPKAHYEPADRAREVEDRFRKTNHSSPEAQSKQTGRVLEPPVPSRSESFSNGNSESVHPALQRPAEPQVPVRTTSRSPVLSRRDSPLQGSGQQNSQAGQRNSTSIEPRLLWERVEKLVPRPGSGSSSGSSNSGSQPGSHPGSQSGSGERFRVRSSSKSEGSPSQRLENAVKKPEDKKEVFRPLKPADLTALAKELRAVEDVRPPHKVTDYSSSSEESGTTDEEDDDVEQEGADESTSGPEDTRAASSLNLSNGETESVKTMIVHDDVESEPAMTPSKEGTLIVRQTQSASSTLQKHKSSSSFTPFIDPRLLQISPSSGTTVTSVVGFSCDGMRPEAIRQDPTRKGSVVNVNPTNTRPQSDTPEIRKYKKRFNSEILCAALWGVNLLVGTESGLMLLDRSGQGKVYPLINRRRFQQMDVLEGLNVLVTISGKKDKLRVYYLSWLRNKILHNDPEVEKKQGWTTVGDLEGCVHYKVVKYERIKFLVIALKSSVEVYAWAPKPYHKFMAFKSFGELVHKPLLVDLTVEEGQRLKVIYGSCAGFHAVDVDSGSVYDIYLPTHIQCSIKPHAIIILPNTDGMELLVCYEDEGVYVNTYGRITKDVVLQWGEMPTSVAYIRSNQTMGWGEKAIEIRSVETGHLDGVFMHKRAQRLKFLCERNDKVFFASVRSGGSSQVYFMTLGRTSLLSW

As to `COc1cc2c(Oc3ccc(-c4nc5ccccc5s4)cc3)ncnc2cc1OCCCN1CCN(C)CC1`, the residual activity in test [1] is 103%; in test [2] it was 81%; in test [3], 91%; in test [4] it was 236%; in test [5], 58%; in test [6], 10%. Also, in test [7], the residual activity was 90%.

Regarding `COc1cc2c(Oc3ccc(-c4nc5ccccc5s4)cc3)ncnc2cc1OCCCN1CCCC1`, the residual activity was 101% in test [1]; 88% in test [2]; 104% in test [3]; 182% in test [4]; 73% in test [5]; 11% in test [6]. Moreover, in test [7], the residual activity turned out to be 104%.

For `COc1cc2c(Oc3ccc(-c4nc5ccccc5s4)cc3F)ncnc2cc1OCCCN1CCN(C)CC1`, the residual activity in test [1] turned out to be 95%; in test [2] it was 97%; in test [3], 120%; in test [4], 143%; in test [5] it was 53%; in test [6], 21%. For the same compound, in test [7], the residual activity amounted to 105%.
